# Source: patent US11673892B2, “Bicyclic compounds for use as RIP1 kinase inhibitors” (Genentech, Inc., priority 2017, dated 2023)
# Biological target: T1, human RIP1 kinase domain (2-375) (Homo sapiens, UniProt Q13546)
# T1 construct: Purified human RIP1 kinase domain (2-375) (50 nM); made in house; host or cells: baculovirus-infected insect cells
# T1 sequence (Q13546 2-375): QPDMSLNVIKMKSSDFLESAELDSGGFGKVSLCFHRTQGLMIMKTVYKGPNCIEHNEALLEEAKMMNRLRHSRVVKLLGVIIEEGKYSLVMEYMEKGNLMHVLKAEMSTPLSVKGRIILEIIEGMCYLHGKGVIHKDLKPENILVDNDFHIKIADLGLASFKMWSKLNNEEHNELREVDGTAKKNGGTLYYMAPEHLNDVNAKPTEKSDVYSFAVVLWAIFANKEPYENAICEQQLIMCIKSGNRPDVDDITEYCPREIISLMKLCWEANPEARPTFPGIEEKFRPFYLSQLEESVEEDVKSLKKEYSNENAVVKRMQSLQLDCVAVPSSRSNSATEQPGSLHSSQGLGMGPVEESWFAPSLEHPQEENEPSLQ
# Assay: RIP1 kinase inhibition biochemical assay (Transcreener ADP, fluorescence polarization)
# Conditions: Ki app (Morrison tight-binding fit); 50 nM enzyme, 50 uM ATP, 2 hours incubation
# Procedure: RIP1 Kinase Inhibition Assays (Biochemical Assay)
# The compounds of the present invention were tested for their capacity to inhibit RIP1K activity as described below.
# The ability of the receptor interacting protein kinase (RIPK1) to catalyze the hydrolysis of adenosine-5′-triphosphate (ATP) is monitored using the Transcreener ADP (adenosine-5′-diphosphate) assay (BellBrook Labs). Purified human RIP1 kinase domain (2-375) (50 nM) derived from a baculovirus-infected insect cell expression system is incubated with test compounds for 2 hours in 50 mM Hepes buffer (pH 7.5) containing 30 mM MgCl2, 1 mM dithiothreitol, 50 uM ATP, 0.002% Brij-35, and 0.5% dimethyl sulfoxide (DMSO). Reactions are quenched by the addition of 1× Bell Brooks Stop buffer B (20 mM Hepes (ph7.5), 40 mM ethylenediaminetetraacetic acid and 0.02% Brij-35) containing an additional 12 mM EDTA and 55 ug/mL ADP2 antibody and 4 nM ADP-AlexaFluor® 633 tracer. The tracer bound to the antibody is displaced by the ADP generated during the RIP1K reaction, which causes a decrease in fluorescence polarization that is measured by laser excitation at 633 nm with a FP microplate reader M1000. Fractional activity was plotted against test article concentration. Using Genedata Screener software (Genedata; Basel, Switzerland), the data were fit to the tight-binding apparent inhibition constant (Ki^app) Morrison equation [Williams, J. W. and Morrison, J. F. (1979) The kinetics of reversible tight-binding inhibition. Methods Enzymol 63: 437-67]. The following equation was used to calculate fractional activity and Ki^app:
# [formula] where [E]T and [I]T are the total concentrations of active enzyme and test article, respectively.
# Exemplary compounds of the present invention are provided in Table 1 along with their physiochemical characterization and in vitro RIP1 kinase inhibitory activity data. “Method” in the first column of each table refers to the synthetic method(s) used to prepare each compound as shown in the Examples above. In certain examples, chiral column retention times (min) are provided for certain stereoisomers. Unless otherwise specified, the stereochemistry shown in each structure represents relative configuration of a single stereoisomer, and absolute configuration (i.e., “R” and/or “S”) is arbitrarily assigned. In some embodiments, where the Method is described to include the separation of stereoisomers, a single stereoisomer of a compound of Table 1 is provided.
row,SMILES,Ki
1,"F[C@H]1C[C@@H](c2ccccc2)n2nc(-n3ccnc3Cl)nc21 (single isomer, unassigned) [Example 69]",86 nM
2,"CC1([C@@H](O)c2nc3n(n2)[C@H](c2ccccc2)C[C@@H]3F)CC1 (single isomer, unassigned) [Example 105]",350 nM
3,"CC(=O)c1cnn(-c2nc3n(n2)[C@H](c2ccccc2)C[C@@H]3F)c1 (racemic) [Example 78, 1-[1-[rac-(5S,7S)-7-fluoro-5-phenyl-6,7-dihydro-5H-pyrrolo[1,2-b][1,2,4]triazol-2-yl]pyrazol-4-yl]ethanone]",130 nM
4,"O[C@@H](c1nc2n(n1)[C@H](c1ccccc1)C[C@@H]2F)C1CC1 (single isomer, unassigned) [Example 35]",83 nM
5,"N#Cc1cccc2c1cnn2-c1nc2n(n1)[C@H](c1ccccc1)C[C@@H]2F (single isomer, unassigned) [Example 72]",< 5 nM
6,"F[C@H]1C[C@@H](c2ccccc2)n2nc(-n3cncn3)nc21 (single isomer, unassigned) [Example 68]",190 nM
7,"Cc1nccn1-c1nc2n(n1)[C@H](c1ccccc1)C[C@@H]2F (single isomer, unassigned) [Example 67]",890 nM
8,"F[C@H]1C[C@@H](c2ccccc2)n2nc(-n3nnc4cc(Cl)ccc43)nc21 (racemic) [Example 82, 5-chloro-1-[rac-(5S,7S)-7-fluoro-5-phenyl-6,7-dihydro-5H-pyrrolo[1,2-b][1,2,4]triazol-2-yl]benzotriazole]",9.2 nM
9,"F[C@H]1C[C@@H](c2ccccc2)n2nc(-n3cc(C4CC4)cn3)nc21 (single isomer, unassigned) [Example 79]",13 nM
10,"F[C@H]1C[C@@H](c2ccccc2)n2nc(-n3cnc(C(F)(F)F)c3)nc21 (single isomer, unassigned) [Example 62]",160 nM
11,"CC(C)c1cnn(-c2nc3n(n2)[C@H](c2ccccc2)C[C@@H]3F)c1 (single isomer, unassigned) [Example 39]",30 nM
12,"[2H][C@](F)(c1nc2n(n1)[C@H](c1ccccc1)C[C@@H]2F)C1CC1 (single isomer, unassigned) [Example 110]",3.1 nM
13,"F[C@H]1C[C@@H](c2ccccc2)n2nc(-n3ncc4ccncc43)nc21 (racemic) [Example 87, 1-[rac-(5S,7S)-7-fluoro-5-phenyl-6,7-dihydro-5H-pyrrolo[1,2-b][1,2,4]triazol-2-yl]pyrazolo[3,4-c]pyridine]",160 nM
14,"Cc1ccnn1-c1nc2n(n1)[C@H](c1ccccc1)C[C@@H]2F (single isomer, unassigned) [Example 63]",92 nM
15,"OC(c1nc2n(n1)C(c1ccccc1)CC2F)C(F)(F)F [Example 4, cis-(5S,7S)-2,2,2-trifluoro-1-(7-fluoro-5-phenyl-6,7-dihydro-5H-pyrrolo[1,2-b][1,2,4]triazol-2-yl)ethanol]",470 nM
16,"F[C@H]1C[C@@H](c2ccccc2)n2nc(-n3ncc4cnccc43)nc21 (single isomer, unassigned) [Example 89]",810 nM
17,"CS(=O)(=O)c1cnn(-c2nc3n(n2)[C@H](c2ccccc2)C[C@@H]3F)c1 (single isomer, unassigned) [Example 80]",190 nM
18,"N#CC(F)c1nc2n(n1)[C@H](c1ccccc1)C[C@@H]2F (stereo partly drawn) [Example 48, 2-fluoro-2-[(5S,7S)-7-fluoro-5-phenyl-6,7-dihydro-5H-pyrrolo[1,2-b][1,2,4]triazol-2-yl]acetonitrile]",910 nM
19,"Cc1ncnn1-c1nc2n(n1)[C@H](c1ccccc1)C[C@@H]2F (single isomer, unassigned) [Example 74]",70 nM
20,"Fc1cn(-c2nc3n(n2)[C@H](c2ccccc2)C[C@@H]3F)cn1 (single isomer, unassigned) [Example 76]",64 nM

row,SMILES,Ki
1,"F[C@H]1C[C@@H](c2ccccc2)n2nc(-n3ncc4ncccc43)nc21 (single isomer, unassigned) [Example 84]",29 nM
2,"CCC(F)(F)c1nc2n(n1)C(c1ccccc1)CC2F (racemic) [Example 2, Cis-2-(1,1-difluoropropyl)-7-fluoro-5-phenyl-6,7-dihydro-5H-pyrrolo[1,2-b][1,2,4]triazole]",41 nM
3,"N#CC1CC(=Cc2nc3n(n2)[C@H](c2ccccc2)C[C@@H]3F)C1 (mixture of isomers) [Example 55, 3-[[rac-(5S,7S)-7-fluoro-5-phenyl-6,7-dihydro-5H-pyrrolo[1,2-b][1,2,4]triazol-2-yl]methylene]cyclobutanecarbonitrile]",130 nM
4,"CCCc1nc2n(n1)[C@H](c1ccccc1)C[C@@H]2F (single isomer, unassigned) [Example 14]",28 nM
5,"C=C(CC)c1nc2n(n1)[C@H](c1ccccc1)C[C@@H]2F (single isomer, unassigned) [Example 97]",200 nM
6,"CCC(F)c1nc2n(n1)C(c1ccccc1)CC2F (stereo not drawn) [Example 3, Cis-7-fluor-2-(1-fluoropropyl)-5-phenyl-6,7-dihydro-5H-pyrrolo[1,2-b][1,2,4]triazole]",51 nM
7,"F[C@H]1C[C@@H](c2ccccc2)n2nc(-n3nnc4c3CCCC4)nc21 (racemic) [Example 86, 1-(rac-(5S,7S)-7-fluoro-5-phenyl-6,7-dihydro-5H-pyrrolo[1,2-b][1,2,4]triazol-2-yl]-4,5,6,7-tetrahydrobenzotriazole]",18 nM
8,"N#C[C@H]1C[C@@H]1C(F)(F)c1nc2n(n1)[C@H](c1ccccc1)C[C@@H]2F (mixture of isomers) [Example 113, rac-(1S,2S)-2-[difluoro-[(5S,7S)-7-fluoro-5-phenyl-6,7-dihydro-5H-pyrrolo[1,2-b][1,2,4]triazol-2-yl]methyl]cyclopropane carbonitrile]",4.8 nM
9,"FC1CC(c2ccccc2)n2nc(C3CC3)nc21 (racemic) [Example 11, Cis-2-cyclopropyl-7-fluoro-5-phenyl-6,7-dihydro-5H-pyrrolo[1,2-b][1,2,4]triazole]",320 nM
10,"Cc1ncn(-c2nc3n(n2)[C@H](c2ccccc2)C[C@@H]3F)c1C (single isomer, unassigned) [Example 70]",180 nM
11,"CC1(C(F)(F)c2nc3n(n2)[C@H](c2ccccc2)C[C@@H]3F)COC1 (single isomer, unassigned) [Example 17]",34 nM
12,"COC[C@@H]1C[C@H]1c1nc2n(n1)[C@H](c1ccccc1)C[C@@H]2F (racemic) [Example 24, (S,7S)-7-fluoro-5-phenyl-2-[rac-(1R,2R)-2-(methoxymethyl)cyclopropyl]-6,7-dihydro-5H-pyrrolo[1,2-b][1,2,4]triazole]",910 nM
13,"N#CCc1nc2n(n1)[C@H](c1ccccc1)C[C@@H]2F (racemic) [Example 102, 2-[rac-(5S,7S)-7-fluoro-5-phenyl-6,7-dihydro-5H-pyrrolo[1,2-b][1,2,4]triazol-2-yl]acetonitrile]",730 nM
14,"C=CCc1nc2n(n1)[C@H](c1ccccc1)C[C@@H]2F (single isomer, unassigned) [Example 52]",100 nM
15,"N#CCc1cnn(-c2nc3n(n2)[C@H](c2ccccc2)C[C@@H]3F)c1 (single isomer, unassigned) [Example 77]",260 nM
16,"CCc1cnn(-c2nc3n(n2)[C@H](c2ccccc2)C[C@@H]3F)c1 (single isomer, unassigned) [Example 59]",11 nM
17,"F[C@H]1C[C@@H](c2ccccc2)n2nc(-n3cc(C(F)(F)F)cn3)nc21 (single isomer, unassigned) [Example 56]",< 5 nM
18,"Cc1nn(-c2nc3n(n2)[C@H](c2ccccc2)C[C@@H]3F)cc1C#N (single isomer, unassigned) [Example 92]",250 nM
19,"N#Cc1ccc2c(c1)nnn2-c1nc2n(n1)[C@H](c1ccccc1)C[C@@H]2F (racemic) [Example 85, 1-[rac-(5S,7S)-7-fluoro-5-phenyl-6,7-dihydro-5H-pyrrolo[1,2-b][1,2,4]triazol-2-yl]benzotriazole-5-carbonitrile]",19 nM
